According to patent publication US20250333371A1, “COMPOUNDS” (PSYLO PTY LTD, priority 2022, published 2025):
“And” between values parts separate entries of the source, which are not always exact repeats. Identical values can stand only once. Like-named read-outs stand apart in the source and are kept apart here.

Columns and labels:
5-HT2A = molecular target: T1, 5-HT2A (Homo sapiens, UniProt P28223); assay: FLIPR Ca2+ flux functional assay, 5-HT2A receptor (stably transfected HEK293); assay type: cell-based
T1 construct: host or cells: HEK293
Procedure: (§1) Activity at 5-HT2A, 5-HT2B and 5-HT2C receptors was determined using a FLIPR Ca^2+ flux assay at WuXi AppTec Co. Ltd. (Hong Kong) Discovery Biology Unit according to their standard protocols. Briefly, stably transfected cells expressing the receptor of interest (HEK293 for 5-HT2A and 5-HT2C; CHO-K1 for 5-HT2B) were grown and plated in a 384 well plate and incubated at 37° C. and 5% CO2 overnight. A 250 mM stock solution of probenecid in FLIPR calcium assay buffer (10 mL) was freshly prepared and combined with a fluorescent dye (Fluo-4 Direct) to give a final assay concentration of 2.5 mM. Reference compounds were 4-fold serially diluted and the screening compounds were 3-fold serially diluted in 100% DMSO for 10 points using Agilent Bravo, and 750 nL was added to a 384 well compound plate using Echo along with 30 μL assay buffer. The fluorescent dye was then added to the assay plate along with assay buffer to a final volume of 40 μL. The cell plate was incubated for 50 min at 37° C. and 5% CO2 and placed into the FLIPR Tetra along with the compound plate. 10 μL of references and compounds were then transferred from the compound plate into the cell plate and the fluorescent signal was read.

5-HT2C = molecular target: T2, 5-HT2C (Homo sapiens, UniProt P28335); assay: FLIPR Ca2+ flux functional assay, 5-HT2C receptor (stably transfected HEK293); assay type: cell-based
T2 construct: host or cells: HEK293
T2 sequence (P28335 33-458): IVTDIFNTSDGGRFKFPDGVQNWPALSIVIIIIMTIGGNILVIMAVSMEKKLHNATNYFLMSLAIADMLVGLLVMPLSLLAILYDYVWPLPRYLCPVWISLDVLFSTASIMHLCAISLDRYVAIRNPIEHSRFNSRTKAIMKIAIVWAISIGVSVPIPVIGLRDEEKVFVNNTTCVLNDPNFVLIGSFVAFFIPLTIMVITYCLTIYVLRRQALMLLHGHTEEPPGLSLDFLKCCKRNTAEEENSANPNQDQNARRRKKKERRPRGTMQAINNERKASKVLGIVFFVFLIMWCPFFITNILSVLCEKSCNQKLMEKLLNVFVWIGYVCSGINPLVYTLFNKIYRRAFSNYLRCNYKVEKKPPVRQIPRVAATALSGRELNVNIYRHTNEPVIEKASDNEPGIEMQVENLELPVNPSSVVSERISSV
Procedure: as §1

[1] = In vivo pharmacokinetics: plasma and brain exposure after IP administration; set-up: species or system male C57BL/6 mice; conditions: for B:P Ratio Individual / Plasma Concentration (μM) Individual / concentration at 0.5 h / concentration at 0.083 h / concentration at 4 h / Kp at 0.083 h / Kp at 0.5 h / Kp at 4 h / Kp: 10 mg/kg; for Kp at 0.083 h / Kp at 0.5 h / Kp at 4 h / Kp: brain/plasma; for AUC(0-t): read-out: Plasma AUC0-4 h; for AUC(0-inf): read-out: Plasma AUC0-inf; for half-life: read-out: Apparent t1/2 (converted)
Procedure: The study was conducted using established procedures in accordance with the Australian Code of Practice for the Care and Use of Animals for Scientific Purposes, and the study protocols were reviewed and approved by the Monash Institute of Pharmaceutical Sciences Animal Ethics Committee.
The systemic exposure of selected examples was studied in non-fasted male C57BL/6 mice weighing between 22.3-26.2 g. Mice had access to food and water ad libitum throughout the pre- and post-dose sampling period.
On the day of dosing, the formulation of each compound was prepared by dissolving solid compound in phosphate buffer saline (50 mM) using vortexing, creating colourless solutions (pH 6.1-6.3) for each compound.
Compounds were dosed to mice by IP injection (10 mL/kg dose volume via a 27G needle; n=9 mice per compound) and blood samples were collected at 5 and 30 min; 1, 2 and 4 h post-dose (n=3 mice per time point for each compound). A maximum of three blood samples were obtained from each mouse, with plasma samples being taken via submandibular bleed (approximately 120 μL). Once collected, blood samples were centrifuged immediately, supernatant plasma was removed, and stored at −80° C. until analysis by LCMS. In addition, at the 5 and 30 min and 4 h post-dose time points, the whole brain was rapidly removed from the carcass soon after the blood collection. The whole brains were blotted to remove excess blood, placed into pre-weighed polypropylene vials, and weighed. The brains were snap frozen in dry ice and subsequently stored frozen (−80° C.) until analysis.
Concentrations of test compound in plasma and tissue samples were determined using an LCMS/MS method validated for linearity, accuracy, precision, matrix factor and recovery (Table 2).
Test compound standard solutions were diluted from a concentrated stock solution (1 mg/mL in DMSO) using 50% acetonitrile in water (v/v) and a calibration curve was prepared in a matched matrix to the test samples.
Plasma: The plasma calibration curve was prepared by spiking aliquots of blank mouse plasma (25 μL) with test compound standard solutions (5 μL) and internal standard solution (5 μL of diazepam, 5 μg/mL in 50% acetonitrile in water). Test plasma samples (25 μL) were thawed, mixed, and then spiked with internal standard solution (5 μL). Plasma protein precipitation was performed by addition of acetonitrile (3-fold volume ratio) and thorough vortex mixing. Samples were centrifuged (RCF=9391×g) for 3 minutes and the supernatant (90 μL) was collected for analysis.
Tissue: Pre-weighed tissue samples (brain) were homogenised using a glass rod in buffer containing an EDTA/potassium fluoride solution (0.1 M/4 mg/mL) as a stabilisation cocktail to minimise the potential for ex vivo degradation (3 mL cocktail/g tissue). The tissue homogenate was briefly centrifuged (RCF=79×g) for 10 seconds to separate the foam layer before transferring an aliquot of the tissue homogenate (200 μL) to a fresh Eppendorf tube for sample extraction. Calibration standards were prepared by spiking blank brain homogenate (200 μL) with the solution standards (10 μL) and the internal standard (10 μL). Study samples were similarly prepared, except that acetonitrile (10 μL) was added instead of solution standards to maintain the same volume. Protein precipitation was carried out by the addition of a 3-fold volume of acetonitrile, followed by vortex mixing and centrifugation (RCF=9391×g) for 3 min to recover the supernatant for analysis.
Replicate analysis: Triplicate analytical replicate (ARs) samples were prepared similarly to the standards for each sample type at three concentrations (50, 500 and 2,000 ng/mL) and repeat injections of these ARs were included throughout the analytical run to assess assay performance. The extraction of the test compound from the standards and ARs were conducted as described above. […]

[2] = agonist activity, Ca2+ flux, HEK293
[3] = IP 10 mg/kg, 0.083 h, individual mice
[4] = IP 10 mg/kg, 0.083 h, individual mice, read-out: Brain Parenchyma Concentration (μM) Individual
[5] = IP 10 mg/kg, 0.5 h, individual mice
[6] = IP 10 mg/kg, 0.5 h, individual mice, read-out: Brain Parenchyma Concentration (μM) Individual
[7] = IP 10 mg/kg, 4 h, individual mice
[8] = IP 10 mg/kg, 4 h, individual mice, read-out: Brain Parenchyma Concentration (μM) Individual
[9] = male, C57BL/6, mouse, brain, ip, 0.083 h, individual mice, read-out: Brain Parenchyma Concentration (μM) Individual
[10] = male, C57BL/6, mouse, brain, ip, 0.083 h, n = 3, read-out: Brain Parenchyma Concentration (μM) Mean ± SD
[11] = male, C57BL/6, mouse, brain, ip, 0.5 h, n = 3, read-out: Brain Parenchyma Concentration (μM) Mean ± SD
[12] = male, C57BL/6, mouse, brain, ip, 4 h, n = 3, read-out: Brain Parenchyma Concentration (μM) Mean ± SD
[13] = male, C57BL/6, mouse, ip, 0.083 h, individual mice, read-out: B:P Ratio Individual
[14] = male, C57BL/6, mouse, ip, 0.083 h, n = 3, read-out: B:P Ratio Mean ± SD
[15] = male, C57BL/6, mouse, ip, 0.5 h, individual mice, read-out: B:P Ratio Individual
[16] = male, C57BL/6, mouse, ip, 0.5 h, n = 3, read-out: B:P Ratio Mean ± SD
[17] = male, C57BL/6, mouse, ip, 4 h, individual mice, read-out: B:P Ratio Individual
[18] = male, C57BL/6, mouse, ip, 4 h, n = 3, read-out: B:P Ratio Mean ± SD
[19] = male, C57BL/6, mouse, ip, (fu, brain * AUCbrain, 0-4 h)/(fu, plasma * AUCplasma, 0-4 h), read-out: (Unbound) time-averaged B:P
[20] = male, C57BL/6, mouse, ip, AUCbrain, 0-4 h/AUCplasma, 0-4 h, read-out: (Total) time-averaged B:P
[21] = male, C57BL/6, mouse, plasma, ip, 0.083 h, individual mice, read-out: Plasma Concentration (μM) Individual
[22] = male, C57BL/6, mouse, plasma, ip, 0.083 h, n = 3, read-out: Plasma Concentration (μM) Mean ± SD
[23] = male, C57BL/6, mouse, plasma, ip, 0.5 h, individual mice, read-out: Plasma Concentration (μM) Individual
[24] = male, C57BL/6, mouse, plasma, ip, 0.5 h, n = 3, read-out: Plasma Concentration (μM) Mean ± SD
[25] = male, C57BL/6, mouse, plasma, ip, 4 h, n = 3, read-out: Plasma Concentration (μM) Mean ± SD
[26] = male, C57BL/6, mouse, plasma, IP 10 mg/kg
[27] = male, C57BL/6, mouse, IP 10 mg/kg, plasma

T1 sequence (P28223 whole entry): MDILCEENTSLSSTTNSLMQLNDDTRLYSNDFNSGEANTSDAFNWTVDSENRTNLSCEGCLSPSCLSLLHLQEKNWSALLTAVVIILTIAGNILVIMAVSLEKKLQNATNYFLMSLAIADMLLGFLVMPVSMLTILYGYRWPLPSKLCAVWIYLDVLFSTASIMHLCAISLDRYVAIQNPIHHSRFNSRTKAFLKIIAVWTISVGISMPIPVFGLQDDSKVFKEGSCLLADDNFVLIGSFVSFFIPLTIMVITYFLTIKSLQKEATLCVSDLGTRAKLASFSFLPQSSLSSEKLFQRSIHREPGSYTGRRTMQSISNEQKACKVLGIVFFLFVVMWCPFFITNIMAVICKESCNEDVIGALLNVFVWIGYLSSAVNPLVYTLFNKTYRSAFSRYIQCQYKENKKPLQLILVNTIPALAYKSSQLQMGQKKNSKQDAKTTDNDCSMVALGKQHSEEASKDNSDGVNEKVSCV

| SMILES | Emax (5-HT2A; [2]) | Emax (5-HT2C; [2]) | Brain AUC0-4 h ([1]; IP 10 mg/kg) | B:P Ratio Individual [1, 3] | Plasma Concentration (μM) Individual [1, 3] | concentration at 0.5 h [1, 4] | B:P Ratio Individual [1, 5] | Plasma Concentration (μM) Individual [1, 5] | concentration at 0.5 h [1, 6] | B:P Ratio Individual [1, 7] | Plasma Concentration (μM) Individual [1, 7] | concentration at 0.5 h [1, 8] | concentration at 0.083 h [1, 9] | concentration at 0.083 h [1, 10] | concentration at 0.5 h [1, 11] | concentration at 4 h [1, 12] | Kp at 0.083 h [1, 13] | Kp at 0.083 h [1, 14] | Kp at 0.5 h [1, 15] | Kp at 0.5 h [1, 16] | other results |
| --- | --- | --- | --- | --- | --- | --- | --- | --- | --- | --- | --- | --- | --- | --- | --- | --- | --- | --- | --- | --- | --- |
| COc1ccc2cccc(CCN(C)C3CC3)c2c1 [Example I-15, N-(2-(7-methoxynaphthalen-1-yl)ethyl)-N-methylcyclopropanamine] | 70% | 65% | 13.8 µM·h | 6.9 and 6.7 | 1.38 µM and 1.48 µM | 9.59 µM and 9.89 µM | 8.2 and 8.1 | 0.932 µM and 0.820 µM | 7.6 µM and 6.64 µM | 9.3 and 7.5 | 0.0701 µM and 0.151 µM and 0.101 µM | 0.553 µM and 1.41 µM and 0.755 µM | 16.9 µM | 12.1 ± 4.14 µM | 6.18 ± 1.7 µM | 0.905 ± 0.446 µM | 7.3 | 7 ± 0.33 | 6 | 7.4 ± 1.2 | EC50 (5-HT2A; agonist activity, Ca2+ flux, HEK293, read-out: 5-HT2A EC50): 133 nM; EC50 (5-HT2C; agonist activity, Ca2+ flux, HEK293, read-out: 5-HT2C EC50): 292 nM; concentration at 0.5 h ([1]; male, C57BL/6, mouse, brain, ip, 0.5 h, individual mice, read-out: Brain Parenchyma Concentration (μM) Individual): 4.3 µM; Kp at 4 h [1, 17]: 7.9; Kp at 4 h [1, 18]: 8.2 ± 1; Kp [1, 19]: 2; Kp [1, 20]: 8.1; concentration at 0.083 h [1, 21]: 2.3 µM; concentration at 0.083 h [1, 22]: 1.72 ± 0.506 µM; concentration at 0.5 h [1, 23]: 0.718 µM; concentration at 0.5 h [1, 24]: 0.823 ± 0.107 µM; concentration at 4 h [1, 25]: 0.107 ± 0.0406 µM; Cmax [1, 26]: 1720 nM; Tmax [1, 26]: 5 min; AUC(0-t) [1, 26]: 1.71 µM·h; AUC(0-inf) [1, 26]: 1.9 µM·h; half-life [1, 27]: 72 min |
| COc1ccc2cccc(CCN(C)C(C)C)c2c1 [Example I-7, N-(2-(7-methoxynaphthalen-1-yl)ethyl)-N-methylpropan-2-amine] | 84% | 56% | 32.3 µM·h | 11 and 8.9 | 0.896 µM and 1.00 µM | 9.90 µM and 8.88 µM | 18 and 26 | 0.947 µM and 1.55 µM | 17.9 µM and 17.5 µM and 40.1 µM | 14 and 11 | 0.0483 µM and 0.0571 µM | 0.696 µM and 0.639 µM | 6.41 µM | 8.4 ± 1.79 µM | 25.2 ± 13 µM | 0.0825 µM | 9.2 | 9.7 ± 1.2 | 17 | 21 ± 4.6 | EC50 (5-HT2A): 164 nM; EC50 (5-HT2C): 603 nM; concentration at 4 h ([1]; male, C57BL/6, mouse, brain, ip, 4 h, individual mice, read-out: Brain Parenchyma Concentration (μM) Individual): 1.14 µM; Kp at 4 h [1, 17]: 16; Kp at 4 h [1, 18]: 14 ± 2.4; Kp [1, 19]: 3.2; Kp [1, 20]: 18; concentration at 0.083 h [1, 21]: 0.695 µM; concentration at 0.083 h [1, 22]: 0.864 ± 0.155 µM; concentration at 0.5 h [1, 23]: 1.03 µM; concentration at 0.5 h [1, 24]: 1.18 ± 0.329 µM; concentration at 4 h ([1]; male, C57BL/6, mouse, plasma, ip, 4 h, individual mice, read-out: Plasma Concentration (μM) Individual): 0.0723 µM; concentration at 4 h [1, 25]: 0.0592 ± 0.0121 µM; Cmax [1, 26]: 1180 nM; Tmax [1, 26]: 30 min; AUC(0-t) [1, 26]: 1.82 µM·h; AUC(0-inf) [1, 26]: 1.89 µM·h; half-life [1, 27]: 46.2 min |
